# Experimental data reported in ChEMBL document CHEMBL1152256, “Synthesis of Arabino glycosyl triazoles as potential inhibitors of mycobacterial cell wall biosynthesis” (2008).
# The source made the active and inactive calls. The rule behind the calls is not given here.
# System: Escherichia coli
# Experiment: Antibacterial activity against Escherichia coli JM109 at 1 mg/mL
# Format: functional, organism-based
row,Compound,Activity
1,OC[C@H]1O[C@@H](n2cc(-c3ccccc3)nn2)[C@@H](O)[C@@H]1O,inactive
2,CCCCCCc1cn([C@@H]2O[C@H](CO)[C@@H](O)[C@@H]2O)nn1,inactive
3,CCCCCCCCCCCCCCOCc1cn([C@@H]2O[C@H](CO)[C@@H](O)[C@@H]2O)nn1,inactive
4,CCCCCCCCc1cn([C@@H]2O[C@H](CO)[C@@H](O)[C@@H]2O)nn1,inactive
5,CC(C)=CCC/C(C)=C/CC/C(C)=C/COCc1cn([C@@H]2O[C@H](CO)[C@@H](O)[C@@H]2O)nn1,inactive
6,CCCCCCCCCCc1cn([C@@H]2O[C@H](CO)[C@@H](O)[C@@H]2O)nn1,inactive
